The values that follow come from patent US20050124634A1, “1,4-dihydropyridine compounds, pharmaceutical compositions, and methods for the treatment of cardiovascular disease” (MYOGEN, INC., priority 2003, published 2005).

SMILES strings stand for the structures.

In the first experiment the test system is α-MyHC protein levels. The experiment is described as follows: α-MyHC cytoblot assay in neonatal rat ventricular myocytes (NRVM). It is filed as cell-based. Particulars: 10 mM Cpd; NRVM, 3 days. Here is the method: FIG. 1 Concentration-dependent effect of Compound 1 on α-MyHC protein levels in the cytoblot assay. NRVM are cultured for 3 days in serum-free medium in the presence of differing amounts of Compound 1. At the end of the culture period, NRVM are fixed and analyzed for α-MyHC protein levels using the BA-G5 monoclonal antibody specific for α-MyHC. Results are collected as RLU using a Packard Fusion Plate reader, and normalized to the signal from samples cultured in the absence of compound (control, set to 100%).
Preparation and culture of neonatal rat ventricular myocytes (NRVM) was performed by removing hearts from 1-3 day old rat neonatal pups, along with the atria and lungs. The ventricles were cut into smaller pieces and digested 3 times with collagenase for 20-30 min at 37° C. The myocytes were then separated from other cell types using a Percoll gradient. The myocyte layer was collected, washed 2 times, and plated on tissue culture grade 10 cm Petri dishes for 1-2 hrs. The non-adherent cells (myocytes) were removed and plated in Costar clear view 96 well plates coated with 0.2% gelatin for at least 2 hrs. The gelatin solution was removed, and the myocytes were resuspended in DMEM high glucose media (Mediatech) containing 10% charcoal/dextran treated FBS (Hyclone) and 1% Penicillin-Streptomycin-Glutamine (PSG, Gibco). Ten thousand NRVM were plated per well in a 100 μl volume, and incubated overnight at 37° C. in 5% CO2 in air. The following day, the media was replaced with 100 μl of serum-free DMEM high glucose medium supplemented with PSG and 0.3% Nutridoma-SP (Roche).
Compounds were reconstituted in DMSO at 30 mM, and aliquots were stored at −20° C. A 1:1000 dilution was prepared in serum-free DMEM medium supplemented with PSG and 0.3% Nutridoma, and sonicated for 5 min at room temperature. After sonication, additional 3 fold dilutions were prepared in the same medium. Diluted compound was then added to the NRVM cultures in a volume of 100 μl. A 100 mM thyroid hormone stock solution (T3, Calbiochem) was prepared in 100 mM NaOH and added at a final concentration of 3 nM in DMEM medium supplemented with PSG and 0.3% Nutridoma-SP (Roche). NRVM were cultured for 3 days before detection of α-myosin heavy chain (α-MyHC) protein levels in the cytoblot assay.
For the α-MyHC cytoblot assay, NRVM cultures were analyzed for α-MyHC protein levels after 3 days of incubation. NRVM were washed 2 times with PBS, fixed with methanol for 30 min at 4° C., and washed an additional 2 times with PBS. Blocking solution consisting of PBS with 1% bovine serum albumin (BSA, Fisher Biotech) was added for 1 hr at room temperature before addition of a saturating amount of supernatant containing an α-MyHC specific antibody for 60 min at room temperature (BA-G5 hybridoma, ATTC). Two washes were performed with PBS/1% BSA, and a 1:500 dilution of HRP-goat anti-mouse IgG (Southern Biotech) diluted in PBS/1% BSA was added for 60 min at room temperature. Excess antibody was removed with 3 PBS washes, and a chemiluminescent substrate was added (Pierce SuperSignal West Pico Chemiluminscent Substrate) for 5 min before quantitation on a Packard Fusion Plate Reader.
As shown above in Table 1, Compound 1 increased α-MyHC protein levels as determined by an α-MyHC cytoblot assay. Compound 1 was added to NRVM at concentration ranging from 3 nM to 30 μM. After 3 days of incubation with NRVM, α-MyHC protein levels were detected in the cytoblot assay and quantitated (FIG. 1). […] An increase in α-MyHC protein levels was first detected beginning at 30 nM, with a maximal response observed at 3 μM. In six independent experiments, the concentration of Compound 1 that gave a half-maximal response was on average 60 nM.
On to `CC(=O)C1=C(C)NC(SCC(=O)c2ccc(Cl)cc2)=C(C#N)C1c1ccccc1Cl` (racemic) [Compound 5], for which the “% increase of a-MyHC over baseline at 10 mM Cpd” value (“% increase … at 10 mM Cpd” below) came to 52%.
`CC(=O)C1=C(C)NC(SCC(=O)c2ccccc2)=C(C#N)C1c1ccccc1` (racemic) [Compound 19]: the “% increase … at 10 mM Cpd” value turned out to be 71%.
The same measure, in the same setting: the figure for `CC(=O)C1=C(C)NC(SCC(=O)c2cccc(Br)c2)=C(C#N)C1c1ccccc1` (racemic) [Compound 16] is 143%.
Same read-out and setting: the figure for `CC(=O)C1=C(C)NC(SCC(=O)c2ccc(Cl)c(Cl)c2)=C(C#N)C1c1ccc(F)cc1` (racemic) [Compound 10] is 88%.
Still for that read-out and setting: the figure for `CC(=O)C1=C(C)NC(SCC(=O)c2ccc(Cl)cc2Cl)=C(C#N)C1c1ccco1` (racemic) [Compound 34] is 97%; for `CC(=O)C1=C(C)NC(SCC(=O)c2ccc(Cl)c(Cl)c2)=C(C#N)C1c1cccc([N+](=O)[O-])c1` (racemic) [Compound 29] it is 201%.
Consider `CC(=O)C1=C(C)NC(SCC(=O)c2cc(Cl)ccc2Cl)=C(C#N)C1c1ccccc1Cl` (racemic) [Compound 3], for which the “% increase … at 10 mM Cpd” value was determined as 314%.
With `CCc1ccc(C2C(C#N)=C(SCC(=O)c3cccc([N+](=O)[O-])c3)NC(C)=C2C(C)=O)cc1` (racemic) [Compound 24], the “% increase … at 10 mM Cpd” value is listed as 130%.
As to `CC(=O)C1=C(C)NC(SCC(=O)c2ccc(Cl)cc2Cl)=C(C#N)C1c1ccccc1` (racemic) [Compound 15], the “% increase … at 10 mM Cpd” value is 81%.
Still for that read-out and setting: the figure for `CC(=O)C1=C(C)NC(SCC(=O)c2cc(Cl)ccc2Cl)=C(C#N)C1c1ccc(Br)cc1` (racemic) [Compound 23] is 70%; for `CC(=O)C1=C(C)NC(SCC(=O)c2ccc(Cl)c(Cl)c2)=C(C#N)C1c1cccs1` (racemic) [Compound 31] it is 151%.
As for `CC(=O)C1=C(C)NC(SCC(=O)c2ccc(Cl)c(Cl)c2)=C(C#N)C1c1ccccc1` (racemic) [Compound 13], the “% increase … at 10 mM Cpd” value was 95%.
Same read-out and setting: the figure for `CC(=O)C1=C(C)NC(SCC(=O)c2ccc(F)cc2)=C(C#N)C1c1ccccc1` (racemic) [Compound 18] is 37%; for `CC(=O)C1=C(C)NC(SCC(=O)c2ccccc2Cl)=C(C#N)C1c1ccc(Cl)cc1` (racemic) [Compound 9] it is 80%.
For the compound `CC(=O)C1=C(C)NC(SCC(=O)c2cccc([N+](=O)[O-])c2)=C(C#N)C1c1cccs1` (racemic) [Compound 30], the “% increase … at 10 mM Cpd” value came to 156%.
`CC(=O)C1=C(C)NC(SCC(=O)c2cc(Cl)ccc2Cl)=C(C#N)C1c1ccccc1` (racemic) [Compound 27]: the “% increase … at 10 mM Cpd” value came out at 303%.
Regarding `CC(=O)C1=C(C)NC(SCC(=O)c2ccc(Br)cc2)=C(C#N)C1c1ccccc1Cl` (racemic) [Compound 6], the “% increase … at 10 mM Cpd” value turned out to be 53%.
On the same count and under the same terms, the figure for `CC(=O)C1=C(C)NC(SCC(=O)c2cccc([N+](=O)[O-])c2)=C(C#N)C1c1ccc(Cl)cc1` (racemic) [Compound 25] is 139%; for `CC(=O)C1=C(C)NC(SCC(=O)c2ccc(Cl)c(Cl)c2)=C(C#N)C1c1ccc(Cl)cc1` (racemic) [Compound 7] it is 43%; for `CC(=O)C1=C(C)NC(SCC(=O)c2ccc(Cl)cc2Cl)=C(C#N)C1c1ccc(Cl)cc1` (racemic) [Compound 8] it is 29%.
With `CC(=O)C1=C(C)NC(SCC(=O)c2ccccc2Cl)=C(C#N)C1c1ccccc1Cl` (racemic) [Compound 4], the “% increase … at 10 mM Cpd” value was determined as 135%.
For `CC(=O)C1=C(C)NC(SCC(=O)c2ccc([N+](=O)[O-])cc2)=C(C#N)C1c1ccccc1` (racemic) [Compound 28], the “% increase … at 10 mM Cpd” value was determined as 125%.
On the same count and under the same terms, with `CC(=O)C1=C(C)NC(SCC(=O)c2ccc(Cl)c(Cl)c2)=C(C#N)C1c1cccc(C)c1` (racemic) [Compound 20] the figure was 79%; with `CC(=O)C1=C(C)NC(SCC(=O)c2ccccc2)=C(C#N)C1c1ccccc1Cl` (racemic) [Compound 26], 161%.
As for `CC(=O)C1=C(C)NC(SCC(=O)c2ccc(Cl)cc2)=C(C#N)C1c1ccccc1` (racemic) [Compound 17], the “% increase … at 10 mM Cpd” value stood at 29%.
For `CC(=O)C1=C(C)NC(SCC(=O)c2cc(Cl)ccc2Cl)=C(C#N)C1c1cccs1` (racemic) [Compound 33], the “% increase … at 10 mM Cpd” value is listed as 181%.
Consider `CC(=O)C1=C(C)NC(SCC(=O)c2ccc(Cl)c(Cl)c2)=C(C#N)C1c1ccccc1Cl` (racemic) [Compound 21], for which the “% increase … at 10 mM Cpd” value is on record as 126%.
`CC(=O)C1=C(C)NC(SCC(=O)c2ccc([N+](=O)[O-])cc2)=C(C#N)C1c1ccccc1Cl` (racemic) [Compound 14]: the “% increase … at 10 mM Cpd” value is 24%.
Turning to `CC(=O)C1=C(C)NC(SCC(=O)c2ccc([N+](=O)[O-])cc2)=C(C#N)C1c1ccco1` (racemic) [Compound 36], the “% increase … at 10 mM Cpd” value was found to be 115%.
Still for that read-out and setting: the figure for `CC(=O)C1=C(C)NC(SCC(=O)c2ccc(Cl)cc2Cl)=C(C#N)C1c1ccc(F)cc1` (racemic) [Compound 11] is 51%; for `CC(=O)C1=C(C)NC(SCC(=O)c2ccc(Cl)cc2Cl)=C(C#N)C1c1cccs1` (racemic) [Compound 32] it is 45%.
Same read-out and setting: with `CC(=O)C1=C(C)NC(SCC(=O)c2ccc(Br)cc2)=C(C#N)C1c1cccc([N+](=O)[O-])c1` (racemic) [Compound 12] the figure was 34%; with `CC(=O)C1=C(C)NC(SCC(=O)c2ccc(Cl)cc2Cl)=C(C#N)C1c1ccccc1Cl` (racemic) [Compound 22], 81%.
On the same count and under the same terms, with `CC(=O)C1=C(C)NC(SCC(=O)c2cccc([N+](=O)[O-])c2)=C(C#N)C1c1cccc(C)c1` (racemic) [Compound 2] the figure was 95%.

The experiment is the same for the next values; noted with them: at 3 µM; NRVM, 3 days.
For the compound `CC(=O)C1=C(C)NC(SCC(=O)c2ccc(Cl)c(Cl)c2)=C(C#N)C1c1ccco1` (racemic) [Compound 35], the “% increase of a-MyHC over baseline (at 3 µM)” value is 125 (at 3 mM) %.

The experiment is the same for the next values; noted with them: tested according to Example 1; read-out: MPE50 for increasing α-MyHC protein levels.
In the case of `CC(=O)C1=C(C)NC(SCC(=O)c2cccc([N+](=O)[O-])c2)=C(C#N)C1c1ccccc1Cl` (stereo not drawn) [R-enantiomer], the EC50 is 790 nM.
Same read-out and setting: the figure for `CC(=O)C1=C(C)NC(SCC(=O)c2cccc([N+](=O)[O-])c2)=C(C#N)C1c1ccccc1Cl` (stereo not drawn) [S-enantiomer] is more than 32000 nM.

The next experiment concerns secretion of atrial natriuretic factor. The experiment is described as follows: Anti-hypertrophic activity in NRVM, ANF ELISA (ANF secretion). Type of experiment: cell-based, rat. The note with it: NRVM, hypertrophy induced by pharmacological stimuli; read-out: IC50 of the ANF ELISA (antihypertrophic activity). As for the experimental part:
Anti-hypertrophic Activity of Racemic Compound 1 and Purified Enantiomers of Compound 1. Neonatal rat ventricular myocytes (NRVM) were isolated from 1 to 3 day-old Sprague-Dawley rats using enzymatic digestion and myocyte enrichment techniques. NRVM were cultured in serum-containing media for 18 hours. For the continuation of culture, serum-free media was used. Hypertrophy of NRVM was induced using pharmacological stimuli, including phenylephrine, endothelin-1, and […]. Hypertrophic responses were determined using methods including the following: measurement of total cellular protein; secretion of atrial natriuretic factor; determination of cell volume; determination of the expression of so-called fetal genes such as atrial natriuretic factor, beta-myosin heavy chain and alpha-skeletal actin. ANF secretion was the most sensitive assay for measuring hypertrophy, and the IC50 of the ANF ELISA was the measurement used to determine antihypertrophic activity.
(An ELISA detects its analyte on a solid surface through an enzyme-linked reagent.)
As to `CC(=O)C1=C(C)NC(SCC(=O)c2cccc([N+](=O)[O-])c2)=C(C#N)C1c1ccccc1Cl` (stereo not drawn) [R-enantiomer], the IC50 – broadly, the midpoint of a concentration-inhibition curve – is 1100 nM.
Consider `CC(=O)C1=C(C)NC(SCC(=O)c2cccc([N+](=O)[O-])c2)=C(C#N)C1c1ccccc1Cl` (stereo not drawn) [S-enantiomer], for which the half-maximal inhibitory concentration (IC50) was 389 nM.
